Assay results as given in patent US7994168B2, “Hexahydro-pyrazino[1,2-A]pyrimidine-4,7-dione derivatives substituted with amino acids” (Sanofi-Aventis Deutschland GmbH, priority 2004, dated 2011).

These compounds were tested against T1, MC4 (Homo sapiens, UniProt P32245) (assay: In vitro functional assay with recombinant cells: agonist-induced changes in intracellular Ca2+ (FLIPR)). Details: recombinant HEK293 cells expressing MC4 and G-protein α-16; Fluo-4 Ca2+ FLIPR; 100% = 100 nM reference agonist MTII.
T1 construct: expressed in transfected cells; host or cells: HEK293
T1 sequence (P32245 whole entry): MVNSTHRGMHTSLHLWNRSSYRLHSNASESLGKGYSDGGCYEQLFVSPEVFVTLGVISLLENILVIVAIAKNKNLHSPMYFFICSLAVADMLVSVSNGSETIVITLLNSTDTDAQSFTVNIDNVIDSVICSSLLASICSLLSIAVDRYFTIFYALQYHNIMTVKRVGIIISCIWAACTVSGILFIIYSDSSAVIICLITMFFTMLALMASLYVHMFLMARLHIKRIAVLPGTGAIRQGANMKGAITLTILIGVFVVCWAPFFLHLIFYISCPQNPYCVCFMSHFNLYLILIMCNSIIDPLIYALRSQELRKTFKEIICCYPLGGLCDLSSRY
Format: cell-based
Procedure: In Vitro Functional Assays with Recombinant Cells
Function-testing assays were carried out by determining the agonist-induced changes in the intracellular concentration of Ca^2+ in recombinant HEK293 cells which express both MC4 and G-protein α-16 by means of the FLIPR technique (“Fluorescence Imaging Plate Reader”, Molecular Devices Corp.).
For the investigations, cells were seeded into 96-well microtiter plates (50 000 cells/well) and allowed to grow overnight. The medium was removed and the cells were incubated in buffer which contained the fluorescent dye Fluo-4. After this loading with dye, the cells were washed, test substance was added, and changes in the intracellular Ca^2+ concentration were measured in the FLIPR apparatus. Results have been shown as percentage change relative to the control (0%: no test substance added; 100%: 100 nM reference agonist MTII added), and used to calculate dose/activity plots, with subsequent determination of EC50 values.

**Q.** `CC(C)C(N)C(=O)N1CCCC1C(=O)NC1CN(S(=O)(=O)c2ccc(Cl)cc2Cl)C2CN(C(C)C)C(=O)C(Cc3ccc(Cl)cc3)N2C1=O` (stereo not drawn) [Example 1, N-[6-(4-Chlorobenzyl)-1-(2,4-dichlorobenzenesulfonyl)-8-isopropyl-4,7-dioxooctahydropyrazino[1,2-a]pyrimidin-3-yl]-1-(2-amino-3-methylbutyryl)pyrrolidin-2-carboxamide] was tested. Which EC50 did it give?
**A.** 0.4 nM

**Q.** `CC(C)N1CC2N(C(=O)C(NC(=O)C3CCCN3C(=O)CN)CN2S(=O)(=O)c2ccc(Cl)cc2Cl)C(Cc2ccc(Cl)cc2)C1=O` (stereo not drawn) [Example 2, N-[6-(4-Chlorobenzyl)-1-(2,4-dichlorobenzenesulfonyl)-8-isopropyl-4,7-dioxooctahydropyrazino[1,2-a]pyrimidin-3-yl]-1-(2-aminoacetyl)pyrrolidine-2-carboxamide] was tested. Which EC50 did it give?
**A.** 0.6 nM

**Q.** With `CC(N)C(=O)N1CCCC1C(=O)NC1CN(S(=O)(=O)c2ccc(Cl)cc2Cl)C2CN(C(C)C)C(=O)C(Cc3ccc(Cl)cc3)N2C1=O` (stereo not drawn) [Example 3, N-[6-(4-Chlorobenzyl)-1-(2,4-dichlorobenzenesulfonyl)-8-isopropyl-4,7-dioxooctahydropyrazino[1,2-a]pyrimidin-3-yl]-1-(2-aminopropionyl)pyrrolidine-2-carboxamide] as the compound, how does the EC50 read?
**A.** 0.2 nM

**Q.** How did the EC50 turn out when `CC(C)CC(N)C(=O)N1CCCC1C(=O)NC1CN(S(=O)(=O)c2ccc(Cl)cc2Cl)C2CN(C(C)C)C(=O)C(Cc3ccc(Cl)cc3)N2C1=O` (stereo not drawn) [Example 4, N-[6-(4-Chlorobenzyl)-1-(2,4-dichlorobenzenesulfonyl)-8-isopropyl-4,7-dioxooctahydropyrazino[1,2-a]pyrimidin-3-yl]-1-(2-amino-4-methylpentanoyl)pyrrolidine-2-carboxamide] was run?
**A.** 0.4 nM

**Q.** `CC(C)C(C(=O)N1CCCC1C(=O)NC1CN(S(=O)(=O)c2ccc(Cl)cc2Cl)C2CN(C(C)C)C(=O)C(Cc3ccc(Cl)cc3)N2C1=O)N(C)C` (stereo not drawn) [Example 5, N-[6-(4-Chlorobenzyl)-1-(2,4-dichlorobenzenesulfonyl)-8-isopropyl-4,7-dioxooctahydropyrazino[1,2-a]pyrimidin-3-yl]-1-(2-dimethylamino-3-methylbutyryl)pyrrolidine-2-carboxamide] was tested. Which EC50 did it give?
**A.** 2 nM

**Q.** For `CC(C)C(N)C(=O)N1CCCC1C(=O)NC1CN(S(=O)(=O)c2cc(F)ccc2Cl)C2CN(C(C)C)C(=O)C(Cc3ccc(Cl)cc3)N2C1=O` (stereo not drawn) [Example 6, N-[6-(4-Chlorobenzyl)-1-(2-chloro-5-fluorobenzenesulfonyl)-8-isopropyl-4,7-dioxooctahydropyrazino[1,2-a]pyrimidin-3-yl]-1-(2-amino-3-methylbutyryl)pyrrolidine-2-carboxamide], which EC50 is on record?
**A.** 3.2 nM

**Q.** Which EC50 does the source give for `CC(C)C(N)C(=O)N1CCCC1C(=O)NC1CN(S(=O)(=O)c2ccc(OC(F)(F)F)cc2Cl)C2CN(C(C)C)C(=O)C(Cc3ccc(Cl)cc3)N2C1=O` (stereo not drawn) [Example 7, N-[6-(4-Chlorobenzyl)-1-(2-chloro-4-trifluoromethoxybenzene-sulfonyl)-8-isopropyl-4,7-dioxooctahydropyrazino[1,2-a]-pyrimidin-3-yl]-1-(2-amino-3-methylbutyryl)pyrrolidine-2-carboxamide] here?
**A.** 2.6 nM

**Q.** `CC(C)C(N)C(=O)N1CCCC1C(=O)NC1CN(S(=O)(=O)c2ccc(Cl)cc2F)C2CN(C(C)C)C(=O)C(Cc3ccc(Cl)cc3)N2C1=O` (stereo not drawn) [Example 8, N-[6-(4-Chlorobenzyl)-1-(4-chloro-2-fluorobenzenesulfonyl)-8-isopropyl-4,7-dioxooctahydropyrazino[1,2-a]pyrimidin-3-yl]-1-(2-amino-3-methylbutyryl)pyrrolidine-2-carboxamide] was tested. Which EC50 did it give?
**A.** 2.4 nM

**Q.** How did the EC50 turn out when `CC(C)C(N)C(=O)N1CCCC1C(=O)NC1CN(S(=O)(=O)c2ccc(Cl)cc2Cl)C2CN(C(C)C)C(=O)C(Cc3ccc(F)c(F)c3)N2C1=O` (stereo not drawn) [Example 9, N-[1-(2,4-Dichlorobenzenesulfonyl)-6-(3,4-difluorobenzyl)-8-isopropyl-4,7-dioxooctahydropyrazino[1,2-a]pyrimidin-3-yl]-1-(2-amino-3-methylbutyryl)pyrrolidine-2-carboxamide] was run?
**A.** 1.5 nM

**Q.** How did the EC50 turn out when `CC(C)C(N)C(=O)N1CCCC1C(=O)NC1CN(S(=O)(=O)c2ccc(Cl)cc2Cl)C2CN(C(C)C)C(=O)C(Cc3ccc(F)cc3F)N2C1=O` (stereo not drawn) [Example 10, N-[1-(2,4-Dichlorobenzenesulfonyl)-6-(2,4-difluorobenzyl)-8-isopropyl-4,7-dioxooctahydropyrazino[1,2-a]pyrimidin-3-yl]-1-(2-amino-3-methylbutyryl)pyrrolidine-2-carboxamide] was run?
**A.** 5.7 nM

**Q.** Which EC50 does the source give for `CC(C)C(N)C(=O)N1CCCC1C(=O)NC1CN(S(=O)(=O)c2ccc(Cl)cc2Cl)C2CN(CC(F)F)C(=O)C(Cc3ccc(Cl)cc3)N2C1=O` (stereo not drawn) [Example 11, N-[6-(4-Chlorobenzyl)-1-(2,4-dichlorobenzenesulfonyl)-8-(2,2-difluoroethyl)-4,7-dioxooctahydropyrazino[1,2-a]pyrimidin-3-yl]-1-(2-amino-3-methylbutyryl)pyrrolidine-2-carboxamide] here?
**A.** 0.6 nM

**Q.** Which EC50 does the source give for `CCN1CC2N(C(=O)C(NC(=O)C3CCCN3C(=O)C(N)C(C)C)CN2S(=O)(=O)c2ccc(Cl)cc2Cl)C(Cc2ccc(Cl)cc2)C1=O` (stereo not drawn) [Example 12, N-[6-(4-Chlorobenzyl)-1-(2,4-dichlorobenzenesulfonyl)-8-ethyl-4,7-dioxooctahydropyrazino[1,2-a]pyrimidin-3-yl]-1-(2-amino-3-methylbutyryl)pyrrolidine-2-carboxamide] here?
**A.** 0.6 nM

**Q.** How did the EC50 turn out when `CC(C)C(N)C(=O)N1CCCC1C(=O)NC1CN(S(=O)(=O)c2ccc(Cl)cc2Cl)C2CN(C)C(=O)C(Cc3ccc(Cl)cc3)N2C1=O` (stereo not drawn) [Example 13] was run?
**A.** 4.7 nM

**Q.** For `CCN1C[C@H]2N(C(=O)C(NC(=O)C3CCCN3C(=O)C(N)C(C)C)CN2S(=O)(=O)c2ccc(Cl)cc2Cl)[C@@H](Cc2ccc(F)c(F)c2)C1=O` (stereo partly drawn) [Example 14, N-[1-(2,4-dichlorobenzenesulfonyl)-6-(3,4-difluorobenzyl)-8-ethyl-4,7-dioxooctahydropyrazino[1,2-a]pyrimidin-3-yl]-1-(2-amino-3-methylbutryl)pyrrolidine-2-carboxamide], which EC50 is on record?
**A.** 1.6 nM

**Q.** With `CC(C)C(N)C(=O)N1CCCC1C(=O)NC1CN(S(=O)(=O)c2ccc(Cl)cc2Cl)C2CN(C)C(=O)C(Cc3ccc(F)c(F)c3)N2C1=O` (stereo not drawn) [Example 15, N-[1-(2,4-Dichlorobenzenesulfonyl)-6-(3,4-difluorobenzyl)-8-methyl-4,7-dioxooctahydropyrazino[1,2-a]pyrimidin-3-yl]-1-(2-amino-3-methylbutyryl)pyrrolidine-2-carboxamide] as the compound, how does the EC50 read?
**A.** 30.8 nM

**Q.** How did the EC50 turn out when `CC(C)C(N)C(=O)N1CCCC1C(=O)NC1CN(S(=O)(=O)c2ccc(Cl)cc2Cl)C2CN(C(C)C)C(=O)C(Cc3cccnc3)N2C1=O` (stereo not drawn) [Example 16, N-[1-(2,4-Dichlorobenzenesulfonyl)-8-isopropyl-4,7-dioxo-6-pyridin-3-ylmethyloctahydropyrazino[1,2-a]pyrimidin-3-yl]-1-(2-amino-3-methylbutyryl)pyrrolidine-2-carboxamide] was run?
**A.** 717 nM

**Q.** With `CC(C)C(N)C(=O)N1CCCC1C(=O)NC1CN(S(=O)(=O)c2ccc(Cl)cc2Cl)C2CN(C3CC3)C(=O)C(Cc3cccnc3)N2C1=O` (stereo not drawn) [Example 17, N-[8-Cyclopropyl-1-(2,4-dichlorobenzenesulfonyl)-4,7-dioxo-6-pyridin-3-ylmethyloctahydropyrazino[1,2-a]pyrimidin-3-yl]-1-(2-amino-3-methylbutyryl)pyrrolidine-2-carboxamide] as the compound, how does the EC50 read?
**A.** 3490 nM

The compounds below were run on female NMRI mice (assay: Anorectic effect: cumulative condensed milk consumption of fasted mice). Details: oral dose 30 mg/kg by gavage after 24 hours food withdrawal, milk consumption determined for 7 hours, compared with vehicle-treated control animals.
Format: in vivo
Procedure: The anorectic effect was tested on female NMRI mice. After withdrawal of food for 24 hours, the test product was administered by gavage. The animals were housed singly with free access to drinking water and were offered condensed milk 30 minutes after administration of the product. The condensed milk consumption was determined every half hour for 7 hours, and the general wellbeing of the animals was observed. The measured milk consumption was compared with the vehicle-treated control animals.

**Q.** Which “Reduction in the cumulative milk consumption as % of the control” value does the source give for `CC(C)C(N)C(=O)N1CCCC1C(=O)NC1CN(S(=O)(=O)c2ccc(Cl)cc2Cl)C2CN(C(C)C)C(=O)C(Cc3ccc(Cl)cc3)N2C1=O` (stereo not drawn) [Example 1, N-[6-(4-Chlorobenzyl)-1-(2,4-dichlorobenzenesulfonyl)-8-isopropyl-4,7-dioxooctahydropyrazino[1,2-a]pyrimidin-3-yl]-1-(2-amino-3-methylbutyryl)pyrrolidin-2-carboxamide] here?
**A.** 8%
